Data reported in PubChem BioAssay AID256 (DTP/NCI, 2004).
Several values for one entry are separate records, joined by “and”; a condition that tells them apart may be missing. Equal values may be shown once. Inconclusive results and toxic doses are left out. The calls were made as follows: active = survival T/C of 150% or more; inactive = T/C below 125% in these data.

Test system: CD2F1 mice, L1210 leukemia ip, survival T/C
Test: NCI In Vivo Anticancer Drug Screen. Data for tumor model L1210 Leukemia (intraperitoneal) in CD2F1 (CDF1) mice
Settings: higher = longer survival
Summary of the method: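 Each value reflects a quotient of treated over vehicle control outcomes in mice with a transplanted tumor.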

[1] = endpoint: mean survival time, dose: 100.0 mg/kg/injection, schedule: Q04DX003 (ip), vehicle: saline with Tween-80
[2] = endpoint: mean survival time, dose: 200.0 mg/kg/injection, schedule: Q04DX003 (ip), vehicle: saline with Tween-80
[3] = endpoint: mean survival time, dose: 400.0 mg/kg/injection, schedule: Q04DX003 (ip), vehicle: saline with Tween-80
[4] = endpoint: mean survival time, dose: 100.0 mg/kg/injection, schedule: Q01DX001 (ip), vehicle: saline with Tween-80
[5] = endpoint: mean survival time, dose: 200.0 mg/kg/injection, schedule: Q01DX001 (ip), vehicle: saline with Tween-80
[6] = endpoint: mean survival time, dose: 400.0 mg/kg/injection, schedule: Q01DX001 (ip), vehicle: saline with Tween-80
[7] = endpoint: mean survival time, dose: 100.0 mg/kg/injection, schedule: Q01DX001 (ip), vehicle: saline
[8] = endpoint: mean survival time, dose: 200.0 mg/kg/injection, schedule: Q01DX001 (ip), vehicle: saline
[9] = endpoint: mean survival time, dose: 400.0 mg/kg/injection, schedule: Q01DX001 (ip), vehicle: saline
[10] = endpoint: mean survival time, dose: 50.0 mg/kg/injection, schedule: Q01DX009 (ip), vehicle: saline with Tween-80
[11] = endpoint: mean survival time, dose: 100.0 mg/kg/injection, schedule: Q01DX009 (ip), vehicle: saline with Tween-80
[12] = endpoint: mean survival time, dose: 200.0 mg/kg/injection, schedule: Q01DX009 (ip), vehicle: saline with Tween-80
[13] = endpoint: mean survival time, dose: 25.0 mg/kg/injection, schedule: Q04DX002 (ip), vehicle: saline with Tween-80
[14] = endpoint: mean survival time, dose: 50.0 mg/kg/injection, schedule: Q04DX002 (ip), vehicle: saline with Tween-80
[15] = endpoint: mean survival time, dose: 100.0 mg/kg/injection, schedule: Q04DX002 (ip), vehicle: saline with Tween-80
[16] = endpoint: mean survival time, dose: 12.5 mg/kg/injection, schedule: Q01DX009 (ip), vehicle: saline with Tween-80
[17] = endpoint: mean survival time, dose: 25.0 mg/kg/injection, schedule: Q01DX009 (ip), vehicle: saline with Tween-80
[18] = endpoint: mean survival time, dose: 400.0 mg/kg/injection, schedule: Q01DX009 (ip), vehicle: saline with Tween-80
[19] = endpoint: mean survival time, dose: 50.0 mg/kg/injection, schedule: Q04DX003 (ip), vehicle: saline with Tween-80
[20] = endpoint: mean survival time, dose: 25.0 mg/kg/injection, schedule: Q04DX003 (ip), vehicle: saline with Tween-80
[21] = endpoint: mean survival time, dose: 200.0 mg/kg/injection, schedule: Q04DX002 (ip), vehicle: saline with Tween-80
[22] = endpoint: mean survival time, dose: 400.0 mg/kg/injection, schedule: Q04DX002 (ip), vehicle: saline with Tween-80

Measured: T/C

CC(C)CC1(C(C)C)C(=O)NC(=S)NC1=O
inactive: endpoint: mean survival time, dose: 5.0 mg/kg/injection, schedule: Q01DX001 (ip), vehicle: saline 102 % of control | endpoint: mean survival time, dose: 10.0 mg/kg/injection, schedule: Q01DX001 (ip), vehicle: saline 96 % of control | endpoint: mean survival time, dose: 20.0 mg/kg/injection, schedule: Q01DX001 (ip), vehicle: saline 98 % of control | endpoint: mean survival time, dose: 40.0 mg/kg/injection, schedule: Q01DX001 (ip), vehicle: saline 101 % of control

CCCC(=O)Nc1ncnc2c1[nH]c(=O)n2C1OC2COP(=O)(O)OC2C1O (stereo not given)
inactive: endpoint: mean survival time, dose: 6.25 mg/kg/injection, schedule: Q01DX005 (ip), vehicle: water 97 % of control | endpoint: mean survival time, dose: 12.5 mg/kg/injection, schedule: Q01DX005 (ip), vehicle: water 97 % of control | endpoint: mean survival time, dose: 25.0 mg/kg/injection, schedule: Q01DX005 (ip), vehicle: water 93 % of control | endpoint: mean survival time, dose: 50.0 mg/kg/injection, schedule: Q01DX005 (ip), vehicle: water 93 % of control | endpoint: mean survival time, dose: 100.0 mg/kg/injection, schedule: Q01DX005 (ip), vehicle: water 95 % of control

O=C(O)c1cccnc1F
inactive: [1] 94 % of control | [2] 98 % of control | [3] 96 % of control

CC(C)(C(=O)O)C(C)(C)C(=O)O
inactive: [4] 98 % of control | [5] 98 % of control | [6] 101 % of control

Cc1nc(/N=C(/N)N(C)C)[nH]c(=O)c1C
inactive: [7] 97 % of control | [8] 103 % of control | [9] 109 % of control

N#CCCOc1ccc(Cl)cc1
inactive: [10] 107 % of control | [11] 97 % of control | [12] 96 % of control

Cc1cc(C)c(NC2=NCCS2)cc1C
inactive: [13] 101 % of control | [14] 104 % of control | [15] 101 % of control

NC(=O)c1ccccc1NC(=O)Nc1ccc(Cl)c(C(F)(F)F)c1
inactive: [10] 87 % of control | [11] 96 % of control | [12] 93 % of control

C1OCN2CSCC12 (stereo not given)
inactive: [16] 93 % of control and 96 % of control | [17] 98 % of control and 100 % of control | [10] 98 % of control and 102 % of control | [11] 101 % of control and 103 % of control | [12] 104 % of control and 108 % of control | [18] 110 % of control

COc1cc(Cl)ccc1NC(=O)Nc1cc(C)on1
inactive: [10] 100 % of control | [11] 95 % of control | [12] 95 % of control

C[N+](C)(C)CCOC(=O)CCC(=O)OCC[N+](C)(C)C
inactive: endpoint: mean survival time, dose: 0.31 mg/kg/injection, schedule: Q01DX009 (ip), vehicle: saline sonified 92 % of control | endpoint: mean survival time, dose: 0.63 mg/kg/injection, schedule: Q01DX009 (ip), vehicle: saline sonified 96 % of control | endpoint: mean survival time, dose: 1.25 mg/kg/injection, schedule: Q01DX009 (ip), vehicle: saline sonified 103 % of control | endpoint: mean survival time, dose: 6.25 mg/kg/injection, schedule: Q04DX003 (ip), vehicle: saline 101 % of control | endpoint: mean survival time, dose: 12.5 mg/kg/injection, schedule: Q04DX003 (ip), vehicle: saline 100 % of control

CC(C)CCOC(=O)CN(CC(=O)OCCC(C)C)c1ccccc1
inactive: [11] 89 % of control | [1] 95 % of control | [12] 91 % of control | [2] 97 % of control | [18] 97 % of control | [3] 105 % of control

C/C=C\c1ccc(OCCOC(=O)Nc2c(Cl)cccc2Cl)c(OC)c1
inactive: [16] 103 % of control | [17] 97 % of control | [10] 94 % of control and 99 % of control | [11] 94 % of control | [12] 94 % of control

CCC(CNCCCC(=O)O)(C(=O)O)C(=O)O
inactive: [13] 98 % of control | [14] 94 % of control | [15] 102 % of control

Nc1cccc2c1-c1ccccc1C2
inactive: endpoint: mean survival time, dose: 50.0 mg/kg/injection, schedule: Q04DX003 (ip), vehicle: Klucel (hydroxypropylcellulose) (HPC) 105 % of control | endpoint: mean survival time, dose: 100.0 mg/kg/injection, schedule: Q04DX003 (ip), vehicle: Klucel (hydroxypropylcellulose) (HPC) 96 % of control | endpoint: mean survival time, dose: 200.0 mg/kg/injection, schedule: Q04DX003 (ip), vehicle: Klucel (hydroxypropylcellulose) (HPC) 102 % of control

CC1CCS(=O)(=O)CC1.[Cl][Hg][Cl]
inactive: endpoint: mean survival time, dose: 0.62 mg/kg/injection, schedule: Q04DX003 (ip), vehicle: saline 104 % of control | endpoint: mean survival time, dose: 1.25 mg/kg/injection, schedule: Q04DX003 (ip), vehicle: saline 106 % of control

CCOC(=O)/C(=C/c1ccc(OCc2ccccc2)cc1)P(=O)(OCC)OCC
inactive: [1] 98 % of control | [2] 96 % of control | [3] 101 % of control

Nc1ccc(N(S(=O)(=O)c2ccccc2)S(=O)(=O)c2ccccc2)c(Cl)c1
inactive: [4] 96 % of control | [5] 98 % of control | [6] 96 % of control

C=CCN(C)N=Nc1ccc(NC(N)=O)cc1
inactive: endpoint: mean survival time, dose: 2.34 mg/kg/injection, schedule: Q01DX009 (ip), vehicle: Klucel (hydroxypropylcellulose) (HPC) 100 % of control and 104 % of control | endpoint: mean survival time, dose: 4.68 mg/kg/injection, schedule: Q01DX009 (ip), vehicle: Klucel (hydroxypropylcellulose) (HPC) 104 % of control and 107 % of control | endpoint: mean survival time, dose: 9.37 mg/kg/injection, schedule: Q01DX009 (ip), vehicle: Klucel (hydroxypropylcellulose) (HPC) 110 % of control | endpoint: mean survival time, dose: 18.75 mg/kg/injection, schedule: Q01DX009 (ip), vehicle: Klucel (hydroxypropylcellulose) (HPC) 120 % of control | endpoint: mean survival time, dose: 75.0 mg/kg/injection, schedule: Q01DX009 (ip), vehicle: Klucel (hydroxypropylcellulose) (HPC) 98 % of control

CCOC(=O)CCOc1ccccc1N(CCCl)CCCl
inactive: [11] 87 % of control

CC(=O)OC1COC(n2cnc3c(=S)nc[nH]c32)C(OC(C)=O)C1OC(C)=O (stereo not given)
inactive: [7] 97 % of control | [8] 102 % of control | [9] 100 % of control

NC(=O)c1csc(COCC(O)CO)n1 (stereo not given)
inactive: endpoint: median survival time, dose: 33.0 mg/kg/injection, schedule: Q01DX009 (ip), vehicle: water 101 % of control | endpoint: median survival time, dose: 66.0 mg/kg/injection, schedule: Q01DX009 (ip), vehicle: water 103 % of control | endpoint: median survival time, dose: 132.0 mg/kg/injection, schedule: Q01DX009 (ip), vehicle: water 107 % of control | endpoint: median survival time, dose: 264.0 mg/kg/injection, schedule: Q01DX009 (ip), vehicle: water 101 % of control

Cc1cc(C(C)(C)C)c(Oc2ccc([N+](=O)[O-])cc2S(=O)(=O)O)c(C(C)(C)C)c1
inactive: [1] 102 % of control | [2] 101 % of control | [3] 92 % of control

NCCCCCBr
inactive: endpoint: mean survival time, dose: 50.0 mg/kg/injection, schedule: Q01DX009 (ip), vehicle: saline 98 % of control | endpoint: mean survival time, dose: 100.0 mg/kg/injection, schedule: Q01DX009 (ip), vehicle: saline 90 % of control | endpoint: mean survival time, dose: 200.0 mg/kg/injection, schedule: Q01DX009 (ip), vehicle: saline 98 % of control

COC1=C(OCc2ccccc2)C(=O)OC1C(O)CO (stereo not given)
inactive: [4] 98 % of control | [5] 97 % of control | [6] 93 % of control

C=C1C(=O)OC2CC3(C)OC3CC/C(C)=C/C(OC(C)=O)C12 (stereo not given)
inactive: [1] 105 % of control | [2] 91 % of control

C/C=C1/C[C@@H](C)[C@@](C)(O)C(=O)OCC2=CCN3CC[C@@H](OC1=O)[C@@H]23
inactive: [19] 103 % of control | [1] 103 % of control | [2] 98 % of control

CC(=O)c1ccc2sc3ccccc3c2c1
inactive: [11] 98 % of control | [12] 93 % of control | [18] 93 % of control

CCCCCCCCCCCCCC[n+]1ccc(C(N)=O)cc1
inactive: endpoint: mean survival time, dose: 12.5 mg/kg/injection, schedule: Q04DX003 (ip), vehicle: saline with Tween-80 107 % of control | [20] 107 % of control

CS(=O)(=O)OCCCN(CCCOS(C)(=O)=O)c1ccc(C=Nc2ccc(-c3csc(COc4ccc(Cl)cc4Cl)n3)cc2)cc1
inactive: [4] 86 % of control | [11] 93 % of control | [5] 86 % of control | [6] 89 % of control

O=[N+]([O-])c1ccc2c(c1)sc1cc([N+](=O)[O-])c(Br)cc12
inactive: [15] 97 % of control | [21] 94 % of control | [22] 112 % of control

Brc1sccc1-c1cccc2ccccc12
inactive: [20] 104 % of control | [19] 96 % of control | [1] 104 % of control

Cc1ccc(C2=CC(=O)C(c3ccc(C)cc3C)=CC2=O)c(C)c1
inactive: [4] 92 % of control | [15] 86 % of control | [5] 91 % of control | [21] 93 % of control | [6] 94 % of control | [22] 101 % of control

O=[N+]([O-])c1cccc(S(=O)(=O)Nc2ccccc2Cl)c1
inactive: [11] 97 % of control | [1] 96 % of control | [12] 92 % of control | [2] 96 % of control | [18] 95 % of control | [3] 95 % of control
